US11021481B2, “Substituted isoindolin-1-ones and 2,3-dihydro-1h-pyrrolo[3,4-c]pyridin-1-ones as HPK1 antagonists” (Nimbus Saturn, Inc., priority 2019, dated 2021)
Structures can show the parent of a compound that is named as a salt.

Target: HPK1 (Homo sapiens (Human), UniProt Q92918)
Assay: HPK1 biochemical enzyme assay (microfluidic mobility shift assay)
Conditions: 1.5 nM HPK1, ATP 1 mM final, 30 min preincubation, 60 min at RT, Caliper EZ Reader; read-out: HPK1 1000UMATP caliper IC50
In short: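 Ten-point compound titrations (top 3 μM final) preincubated 30 min with HPK1 and substrate, then reaction started with 1 mM ATP and 1 μM substrate, 5 mM MgCl2. After 60 min at RT, reaction terminated and product measured by microfluidic mobility shift.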

Sequence of HPK1 (Q92918 whole entry): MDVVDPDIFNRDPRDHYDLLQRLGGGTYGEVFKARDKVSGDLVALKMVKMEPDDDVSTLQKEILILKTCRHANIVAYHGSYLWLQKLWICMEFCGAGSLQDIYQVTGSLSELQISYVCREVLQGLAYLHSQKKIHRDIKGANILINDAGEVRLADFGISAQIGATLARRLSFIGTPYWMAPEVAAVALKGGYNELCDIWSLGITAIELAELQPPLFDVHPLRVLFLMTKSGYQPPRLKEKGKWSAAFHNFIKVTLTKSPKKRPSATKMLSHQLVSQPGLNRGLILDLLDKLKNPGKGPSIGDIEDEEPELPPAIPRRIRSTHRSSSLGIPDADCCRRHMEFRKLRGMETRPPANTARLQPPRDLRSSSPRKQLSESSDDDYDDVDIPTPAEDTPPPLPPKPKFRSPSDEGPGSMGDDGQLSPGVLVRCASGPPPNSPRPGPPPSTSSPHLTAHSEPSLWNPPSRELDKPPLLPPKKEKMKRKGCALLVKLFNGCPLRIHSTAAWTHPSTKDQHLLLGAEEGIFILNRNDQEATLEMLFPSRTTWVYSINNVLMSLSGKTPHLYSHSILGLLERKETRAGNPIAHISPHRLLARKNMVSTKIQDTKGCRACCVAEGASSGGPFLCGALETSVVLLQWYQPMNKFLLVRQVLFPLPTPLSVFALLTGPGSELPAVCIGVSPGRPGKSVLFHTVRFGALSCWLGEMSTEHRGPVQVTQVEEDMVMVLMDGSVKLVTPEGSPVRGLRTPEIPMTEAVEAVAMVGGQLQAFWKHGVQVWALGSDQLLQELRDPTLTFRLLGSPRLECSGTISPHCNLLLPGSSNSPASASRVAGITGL

Compound	IC50 [nM]
CN1CCC(O)(c2cccc(Nc3cnc(-c4ccnc5c4ccn5C)c4c3C(=O)NC4)n2)CC1 [I-407, 7-((6-(4-hydroxy-1-methylpiperidin-4-yl)pyridin-2-yl)amino)-4-(1-methyl-1H-pyrrolo[2,3-b]pyridin-4-yl)-2,3-dihydro-1H-pyrrolo[3,4-c]pyridin-1-one]	< 100
CN1CCN(c2ccc(Nc3ccc(-c4ccn5ncccc45)c4c3C(=O)NC4)nc2)CC1 [I-256, 7-((5-(4-methylpiperazin-1-yl)pyridin-2-yl)amino)-4-(pyrrolo[1,2-b]pyridazin-5-yl)isoindolin-1-one]	< 100
C[C@H]1CN([C@@H](C)c2ccc(Nc3ccc(-c4cnc5cc(F)ccn45)c4c3C(=O)NC4)nc2)CCO1 [I-522, 4-(7-fluoroimidazo [1,2-a]pyridin-3-yl)-7-((5-((S)-1-((S)-2-methylmorpho-lino)ethyl)pyri-din-2-yl)amino) isoin-dolin-1-one]	< 100
(R)-7-((6- ((dimethylamino)- methyl)-5-(2- (methoxymeth- yl)morpholino )pyridin-2- yl)amino)-4-(7- fluoroimidazo [1,2-a]pyridin- 3-yl)isoindolin- 1-one [I-711]	< 100
CO[C@@H]1CCN(Cc2nc(Nc3ccc(-c4cnc5cc(F)ccn45)c4c3C(=O)NC4)ccc2[C@@H]2CCOC2)C1 [I-781, 4-(7-fluoroimidazo [1,2-a]pyridin-3-yl)-7-((6-(((R)-3-methoxypyrrol-idin-1-yl)methyl)-5-((S)-tetrahydrofuran-3-yl)pyridin-2-yl)amino)isoin-dolin-1-one]	< 100
CC(C)NCc1nc(Nc2ccc(-c3cnc4cc(F)ccn34)c3c2C(=O)NC3)ccc1C1CCOCC1 [I-847, 4-(7-fluoroimidazo [1,2-a]pyridin-3-yl)-7-[[6-[(isopropylamino)-methyl]-5-tetrahydropyran-4-yl-2-pyridyl]amino] isoindolin-1-one Formic acid salt]	< 100
CN(C)[C@@H]1COCCN(c2ccc(Nc3ccc(-c4cnc5cc(F)ccn45)c4c3C(=O)NC4)nc2)C1 [I-518, (S)-7-((5-(6-(dimethylami-no)-1,4-oxazepan-4-yl)pyridin-2-yl)amino)-4-(7-fluoroimidazo [1,2-a]pyridin-3-yl)isoindolin-1-one]	< 100
CN(C)Cc1nc(Nc2cnc(-c3ccnc4c3ccn4C)c3c2C(=O)NC3)ccc1O[C@H]1CCOC1 [I-806, (S)-7-((6-((dimetlnlamino)-methyl)-5-((tetrahydrofur-an-3-yl)oxy)pyridin-2-yl)amino)-4-(1-methyl-1H-pyrrolo[2,3-b]pyridin-4-yl)-2,3-dihydro-1H-pyrrolo[3,4-c]pyridin-1-one]	< 100
Cn1ccc2c(-c3ccc(Nc4ccc(N5CCNCC5)cn4)c4c3CNC4=O)cccc21 [I-102, 4-(1-methylindol-4-yl)-7-[(5-piperazin-1-yl-2-pyridyl)amino] isoindolin-1-one]	< 100
O=C1NCc2c(-c3cncn4ccnc34)ncc(Nc3ccc(N4CCC(O)CC4)cn3)c21 [I-632, 7-((5-(4-hydroxy-piperidin-1-yl)pyridin-2-yl)amino)-4-(imidazo[1,2-c]pyrimidin-8-yl)-2,3-dihydro-1H-pyrrolo[3,4-c]pyridin-1-one]	> 1000
O=C1NCc2c(-c3c[nH]c4ccccc34)ncc(Nc3ccc(N4CCNCC4)cn3)c21 [I-1, 4-(1H-indol-3-yl)-7-[(5-piperazin-1-yl-2-pyridyl)amino]-2,3-dihydropyrrolo [3,4-c]pyridin-1-one]	100 to 1000
CN(Cc1nc(Nc2ccc(-c3cnc4cc(F)ccn34)c3c2C(=O)NC3)ccc1[C@@H]1CCOC1)CC(F)F (single isomer, unassigned) [I-749]	< 100
Cn1ccc2c(-c3ccc(Nc4ccc(N5CC6(CC(O)C6)C5)cn4)c4c3CNC4=O)ccnc21 [I-297, 7-((5-(6-hydroxy-2-azaspiro[3,3]heptan-2-yl)pyridin-2-yl)amino)-4-(1-methyl-1H-pyrrolo[2,3-b]pyridin-4-yl)isoindolin-1-one]	< 100
4-(1-methyl- 1H-indol-4- yl)-7-((5- (piperazin-1- yl)pyridin-2- yl)amino)-2,3- dihydro-1H- pyrrolo[3,4- c]pyridin-1-one [I-266]	< 100
Cc1cccc2c(-c3ccc(Nc4ccc([C@@H]5CCOC5)c(CN(C)C)n4)c4c3CNC4=O)cnn12 [I-709, (S)-7-((6-((dimethylamino)-methyl)-5-(tetrahydrofuran-3-yl)pyridin-2-yl)amino)-4-(7-methylpyrazolo[1,5-a]pyridin-3-yl)isoindolin-1-one]	< 100

Now from value to compound:

IC50 [nM]	Compound
< 100	CN1CCC[C@@H](c2cccc(Nc3cnc(-c4ccnc5c4ccn5C)c4c3C(=O)NC4)n2)C1 [I-420, (R]-4-(1-methyl-1H-pyrrolo[2,3-b]pyridin-4-yl)-7-((6-(1-methylpiperidin-3-yl)pyridin-2-yl)amino)-2.3-dihydro-1H-pyrrolo[3,4-c]pyridin-1-one]
> 1000	O=C1NCc2c(-c3cccn4ccnc34)ncc(Nc3ccc(N4CCC(O)CC4)cn3)c21 [I-384, 7-((5-(4-hydroxy-piperidin-1-yl)pyridin-2-yl)amino)-4-(imidazo[1,2-a]pyridin-8-yl)-2,3-dihydro-1H-pyrrolo[3,4-c]pyridin-1-one]
< 100	CN1CCN(CC2(O)CCN(c3ccc(Nc4cnc(-c5ccnc6c5ccn6C)c5c4C(=O)NC5)nc3)CC2)CC1 [I-401, 7-((5-(4-hydroxy-4-((4-methylpiperazin-1-yl)methyl)piper-idin-1-yl)pyridin-2-yl)amino)-4-(1-methyl-1H-pyrrolo[2,3-b]pyridin-4-yl)-2,3-dihydro-1H-pyrrolo[3,4-c]pyridin-1-one]
< 100	Cn1ccc2c(-c3ccc(Nc4ccc(N5CCC(O)CC5)cn4)c4c3CNC4=O)cnc-2n1 [I-426, 7-((5-(4-hydroxy-piperidin-1-yl)pyridin-2-yl)amino)-4-(2-methyl-2H-pyrrolo[2,3-c]pyridazin-5-yl)isoindolin-1-one]
< 100	CCN(CC)Cc1nc(Nc2ccc(-c3cnc4cc(F)ccn34)c3c2C(=O)NC3)ccc1N1CCOCC1 [I-785, 7-((6-((diethylamino)-methyl)-5-morpholinopyr-idin-2-yl)amino)-4-(7-fluoroimidazo [1,2-a]pyridin-3-yl)isoindolin-1-one]
< 100	CN(C)CCc1nc(Nc2ccc(-c3cnc4cc(F)ccn34)c3c2C(=O)NC3)ccc1C1CCOCC1 [I-838, 7-((6-(2-(dimethylami-no)ethyl)-5-(tetrahydro-2H-pyran-4-yl)pyridin-2-yl)amino)-4-(7-fluoroimidazo [1,2-a]pyridin-3-yl)isoindolin-1-one]
< 100	O=C1NCc2c(-c3cnc4cc(F)ccn34)ccc(Nc3ccc([C@H]4CCOC4)c(CN4CCC4)n3)c21 [I-755, (R)-7-((6-(azetidin-1-ylmethyl)-5-(tetrahydrofuran-3-yl)pyridin-2-yl)amino)-4-(7-fluoroimidazo [1,2-a]pyridin-3-yl)isoindolin-1-one]
< 100	CC(C)NCc1nc(Nc2ccc(-c3cnc4cc(F)ccn34)c3c2C(=O)NC3)ccc1[C@@H]1CCOC1 [I-558]
< 100	CN1C[C@H](c2ccc(Nc3ccc(-c4cnc5cnccn45)c4c3C(=O)NC4)nc2)CCC1=O [I-326, (S)-4-(imidazo[1,2-a]pyrazin-3-yl)-7-((5-(1-methyl-6-oxopiperidin-3-yl)pyridin-2-yl)amino)isoin-dolin-1-one]
< 100	Cc1ccn2c(-c3ccc(Nc4ccc(S(C)(=O)=O)cn4)c4c3CNC4=O)cnc2c1 [I-148, 4-(7-methylimidazo [1,2-a]pyridin-3-yl)-7-[(5-methylsulfony 1-2-pyridyl)amino] isoindolin-1-one]
< 100	CN1CCN(CC2(O)CCN(c3ccc(Nc4ccc(-c5cnc6cc(Cl)ccn56)c5c4C(=O)NC5)nc3)CC2)CC1 [I-437, 4-(7-chloroimidazo [1,2-a]pyridin-3-yl)-7-((5-(4-hydroxy-4-((4-methylpiperazin-1-yl)methyl)piper-idin-1-yl)pyridin-2-yl)amino)isoin-dolin-1-one]
